# Data from article PMC10454728, “A Comparative Study on the Lysosomal Cation Channel TMEM175 Using Automated Whole-Cell Patch-Clamp, Lysosomal Patch-Clamp, and Solid Supported Membrane-Based Electrophysiology: Functional Characterization and High-Throughput Screening Assay Development” (International Journal of Molecular Sciences, 2023).
# Biological target: T1, TMEM175 (Homo sapiens, UniProt Q9BSA9)
# T1 sequence (Q9BSA9 1-504): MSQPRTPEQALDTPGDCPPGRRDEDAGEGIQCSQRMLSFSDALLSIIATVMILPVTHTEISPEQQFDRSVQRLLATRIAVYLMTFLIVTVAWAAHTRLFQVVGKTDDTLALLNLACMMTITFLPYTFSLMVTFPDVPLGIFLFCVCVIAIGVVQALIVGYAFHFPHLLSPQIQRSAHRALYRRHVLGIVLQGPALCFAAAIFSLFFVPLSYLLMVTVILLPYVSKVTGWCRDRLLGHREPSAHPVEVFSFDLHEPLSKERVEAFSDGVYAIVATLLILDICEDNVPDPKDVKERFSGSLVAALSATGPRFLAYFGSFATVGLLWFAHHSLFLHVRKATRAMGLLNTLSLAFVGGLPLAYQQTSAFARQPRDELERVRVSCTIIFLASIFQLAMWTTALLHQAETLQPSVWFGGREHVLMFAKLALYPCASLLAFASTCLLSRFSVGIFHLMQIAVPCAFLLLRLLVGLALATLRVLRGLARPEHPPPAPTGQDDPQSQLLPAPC
# Experiment: SSME H+ flux assay (pH jumps) on TMEM175 lysosomes (SURFE2R N1)
# Assay type: biochemical
# Conditions: 10 mM 4-AP
# Description: To further investigate the capability of TMEM175 to translocate protons using SSME, we performed H^+ concentration or pH jumps using the SURFE^2R N1. The non-activating solution was set to pH 7.6, defining both the lysosomal and cytosolic pH before the start of the experiment. By exchanging the non-activating for the activating solution, we acidified the cytosolic solution and stimulated H^+ influx through TMEM175 (Figure 5A).
# However, the application of pH jumps lead to significant artifact currents of positive magnitude, as observed with the control lysosomes (Figure 5C). These artifacts are a result of protons interacting with the lipid membranes and/or unknown H^+ leak pathways through the lysosomal membrane. To conclude pure TMEM175-related H^+ currents, we subtracted the artifact currents from the currents recorded with the TMEM175 sample. When plotting ΔpH against the artifact-corrected average TMEM175 net H^+ current, we obtain a close-to-linear correlation (Figure 5D).
# For comparison with the I/c curve reported for K^+ (Figure 3E), we calculated the difference in H^+ concentration across the lysosomal membrane Δc = cH^out − cH^in, which correlates linearly with the passive H^+ flux J = PH+Δc according to Fick’s law.
# We used H^+ concentration or pH jumps to measure H^+ flux through TMEM175. Non-activating solution was set to pH 7.6, while activating solution contained different pH values between pH 7.4 and pH 4.6; (B) Representative current traces induced by pH jumps on lysosomes overexpressing TMEM175. All current traces were recorded with the same sensor, starting from the lowest ΔpH. […] The remaining current mostly reflects the background (artifact) current after full block of TMEM175; (C) Representative current traces from the same experiment on control lysosomes. […] This represents the artifact current also underlying the currents recorded with the TMEM175 sample; (D) SEM and average, artifact-corrected, normalized peak currents from N = 4 sensors, reflecting the H^+ flux through TMEM175, solely driven by the pH gradient. […]
structure (smiles),measurement,setting,value
"Nc1ccncc1 [4-AP, 4-aminopyridine]",Block of H+ influx current,"ΔpH 3.0, pH 7.6 to 4.6",full block
same,Effect on H+ efflux currents,potency lower than for H+ influx,inhibited
